Data published in ChEMBL document CHEMBL3991601, “The target landscape of clinical kinase drugs” (Science, 2017).
The source made the active and inactive calls. Rule as the data show it, for most assays here: actives have a measured Kd and inactives only a lower limit.

Experiments:
[1] = target: T1, Serine/threonine-protein kinase ICK (Homo sapiens, UniProt Q9UPZ9)
T1 sequence (Q9UPZ9 whole entry): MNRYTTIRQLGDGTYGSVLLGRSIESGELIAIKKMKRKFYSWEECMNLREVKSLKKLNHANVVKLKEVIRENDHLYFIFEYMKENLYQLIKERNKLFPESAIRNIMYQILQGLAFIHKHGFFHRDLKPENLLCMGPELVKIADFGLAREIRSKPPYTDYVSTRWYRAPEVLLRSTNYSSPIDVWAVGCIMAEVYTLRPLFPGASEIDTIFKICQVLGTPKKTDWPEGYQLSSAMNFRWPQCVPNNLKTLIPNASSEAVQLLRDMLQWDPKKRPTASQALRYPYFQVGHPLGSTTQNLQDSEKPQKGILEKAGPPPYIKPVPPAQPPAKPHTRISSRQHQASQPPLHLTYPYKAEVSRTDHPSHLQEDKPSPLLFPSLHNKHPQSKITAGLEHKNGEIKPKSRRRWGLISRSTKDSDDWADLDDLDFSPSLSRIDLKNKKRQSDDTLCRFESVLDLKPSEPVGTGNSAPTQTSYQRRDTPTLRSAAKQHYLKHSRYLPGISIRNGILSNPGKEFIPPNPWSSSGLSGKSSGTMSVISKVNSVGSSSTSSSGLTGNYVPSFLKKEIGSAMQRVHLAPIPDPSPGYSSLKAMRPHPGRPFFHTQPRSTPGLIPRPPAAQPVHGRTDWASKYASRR

[2] = target: T2, Mitogen-activated protein kinase kinase kinase 5 (Homo sapiens, UniProt Q99683)
T2 sequence (Q99683 whole entry): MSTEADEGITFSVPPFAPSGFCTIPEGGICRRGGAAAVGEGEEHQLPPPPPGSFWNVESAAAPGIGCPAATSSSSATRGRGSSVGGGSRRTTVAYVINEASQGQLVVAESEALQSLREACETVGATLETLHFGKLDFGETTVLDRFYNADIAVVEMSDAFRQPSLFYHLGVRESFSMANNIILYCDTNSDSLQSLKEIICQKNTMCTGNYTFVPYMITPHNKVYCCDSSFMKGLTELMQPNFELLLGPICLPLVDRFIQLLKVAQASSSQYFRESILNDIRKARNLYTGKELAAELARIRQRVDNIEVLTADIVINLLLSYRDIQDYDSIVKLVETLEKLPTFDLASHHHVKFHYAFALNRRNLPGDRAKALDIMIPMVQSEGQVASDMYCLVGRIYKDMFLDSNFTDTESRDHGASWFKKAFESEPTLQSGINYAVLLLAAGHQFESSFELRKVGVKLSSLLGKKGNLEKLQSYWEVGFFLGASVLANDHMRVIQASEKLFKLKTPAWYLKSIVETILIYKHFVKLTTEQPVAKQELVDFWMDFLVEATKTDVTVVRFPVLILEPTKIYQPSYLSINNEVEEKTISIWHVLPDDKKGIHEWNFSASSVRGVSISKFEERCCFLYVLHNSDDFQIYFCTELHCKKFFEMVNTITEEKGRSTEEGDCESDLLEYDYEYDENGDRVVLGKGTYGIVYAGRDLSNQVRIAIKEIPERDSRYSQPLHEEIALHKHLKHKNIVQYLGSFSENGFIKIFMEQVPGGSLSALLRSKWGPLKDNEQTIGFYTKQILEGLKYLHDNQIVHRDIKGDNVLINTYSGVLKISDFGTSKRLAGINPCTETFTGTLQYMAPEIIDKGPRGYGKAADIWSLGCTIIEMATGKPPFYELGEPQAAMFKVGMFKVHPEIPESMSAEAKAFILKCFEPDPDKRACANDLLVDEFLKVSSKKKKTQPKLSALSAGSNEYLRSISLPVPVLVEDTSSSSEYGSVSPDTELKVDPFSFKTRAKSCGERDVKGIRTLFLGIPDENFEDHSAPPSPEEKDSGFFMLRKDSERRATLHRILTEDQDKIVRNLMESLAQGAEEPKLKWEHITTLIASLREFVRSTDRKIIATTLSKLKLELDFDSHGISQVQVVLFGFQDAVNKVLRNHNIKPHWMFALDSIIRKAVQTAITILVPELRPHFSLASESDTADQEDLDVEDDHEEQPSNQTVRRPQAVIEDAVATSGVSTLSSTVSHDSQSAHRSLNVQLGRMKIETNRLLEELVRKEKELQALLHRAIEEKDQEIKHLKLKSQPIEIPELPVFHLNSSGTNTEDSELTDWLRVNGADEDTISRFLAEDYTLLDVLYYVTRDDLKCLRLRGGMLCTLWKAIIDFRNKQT

Aurora kinase A = target: T3, Aurora kinase A (Homo sapiens, UniProt O14965)
T3 sequence (O14965 whole entry): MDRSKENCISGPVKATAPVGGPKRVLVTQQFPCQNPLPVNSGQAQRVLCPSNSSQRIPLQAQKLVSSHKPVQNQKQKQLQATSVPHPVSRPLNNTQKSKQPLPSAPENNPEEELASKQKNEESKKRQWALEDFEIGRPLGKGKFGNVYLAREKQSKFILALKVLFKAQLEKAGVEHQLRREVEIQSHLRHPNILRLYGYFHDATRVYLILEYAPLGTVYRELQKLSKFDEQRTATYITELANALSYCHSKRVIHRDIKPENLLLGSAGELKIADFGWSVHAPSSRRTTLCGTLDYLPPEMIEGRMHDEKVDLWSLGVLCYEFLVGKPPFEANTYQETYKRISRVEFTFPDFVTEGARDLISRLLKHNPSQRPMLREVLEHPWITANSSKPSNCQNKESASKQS
Also: in the data inactive means no Kd found up to 30 µM.

| Kd [1] | Kd [2] | Kd (Aurora kinase A) | Compound |
| --- | --- | --- | --- |
| > 30 µM (inactive) | > 30 µM (inactive) | > 30 µM (inactive) | CN1N=C(N)c2cn([C@@H]3O[C@H](COP(=O)(O)O)[C@@H](O)[C@H]3O)c3ncnc1c23 [TRICIRIBINE PHOSPHATE] |
| > 30 µM (inactive) | > 30 µM (inactive) | > 30 µM (inactive) | CC(C)Nc1cc(-c2c[nH]c(C(=O)N[C@H](CO)c3cccc(Cl)c3)c2)c(Cl)cn1 [ULIXERTINIB] |
| > 30 µM (inactive) | > 30 µM (inactive) | > 30 µM (inactive) | CCCS(=O)(=O)Nc1ccc(F)c(C(=O)c2c[nH]c3ncc(-c4ccc(Cl)cc4)cc23)c1F [VEMURAFENIB] |
| > 30 µM (inactive) | > 30 µM (inactive) | > 30 µM (inactive) | CC[C@@H]1C(=O)N(C)c2cnc(Nc3ccc(C(=O)N[C@H]4CC[C@H](N5CCN(CC6CC6)CC5)CC4)cc3OC)nc2N1C(C)C [VOLASERTIB] |
| > 30 µM (inactive) | > 30 µM (inactive) | > 30 µM (inactive) | CCn1c(=O)c(-c2cc[nH]n2)cc2c(C)nc(N)nc21 [VOXTALISIB] |
| > 30 µM (inactive) | > 30 µM (inactive) | > 30 µM (inactive) | O=C(Nc1ccc(-c2ccnc(Nc3ccc(N4CCOCC4)cc3)n2)cc1)C1CCCN1 (configuration not stated) [XL-019] |

The next lines start with the molecule.

| Compound | Kd [1] | Kd [2] | Kd (Aurora kinase A) |
| --- | --- | --- | --- |
| CNC(=O)c1ccc(C)c(-n2c(C)cc(OCc3ccc(F)cc3F)c(Br)c2=O)c1 [PH-797804] | > 30 µM (inactive) | > 30 µM (inactive) | > 30 µM (inactive) |
| C=CC(=O)N1CCC(Oc2cc3c(Nc4ccc(Cl)c(Cl)c4F)ncnc3cc2OC)CC1 [POZIOTINIB] | > 30 µM (inactive) | > 30 µM (inactive) | > 30 µM (inactive) |
| CNC(=O)c1cc(Oc2ccc(NC(=O)Nc3ccc(Cl)c(C(F)(F)F)c3)c(F)c2)ccn1 [REGORAFENIB] | > 30 µM (inactive) | > 30 µM (inactive) | > 30 µM (inactive) |
| CN(C)C(=O)c1cc2cnc(Nc3ccc(N4CCNCC4)cn3)nc2n1C1CCCC1 [RIBOCICLIB] | > 30 µM (inactive) | > 30 µM (inactive) | > 30 µM (inactive) |
| COc1cc(OC)c(/C=C/S(=O)(=O)Cc2ccc(OC)c(NCC(=O)O)c2)c(OC)c1 [RIGOSERTIB] | > 30 µM (inactive) | > 30 µM (inactive) | > 30 µM (inactive) |
| CNC(=O)CN1CCC(Oc2cc3c(Nc4cccc(Cl)c4F)ncnc3cc2OC)CC1 [SAPITINIB] | > 30 µM (inactive) | > 30 µM (inactive) | > 30 µM (inactive) |
| C[C@@H](c1ccc2nccn2c1)n1nnc2ncc(-c3cnn(C)c3)nc21 [SAVOLITINIB] | > 30 µM (inactive) | > 30 µM (inactive) | > 30 µM (inactive) |
| CN1CCC(CNc2ccc3ncc(-c4cccc(OC(F)(F)F)c4)n3n2)CC1 [SGI-1776] | > 30 µM (inactive) | > 30 µM (inactive) | > 30 µM (inactive) |
| C[C@@H]1CN(Cc2ccc(F)cc2)[C@@H](C)CN1C(=O)c1cc2c(C(=O)C(=O)N(C)C)cn(C)c2cc1Cl [TALMAPIMOD] | > 30 µM (inactive) | > 30 µM (inactive) | > 30 µM (inactive) |
| CN1CCC(COc2cnc(-c3cccc(Cn4nc(-c5cccc(C#N)c5)ccc4=O)c3)nc2)CC1 [TEPOTINIB] | > 30 µM (inactive) | > 30 µM (inactive) | > 30 µM (inactive) |
| O=c1sn(-c2cccc3ccccc23)c(=O)n1Cc1ccccc1 [TIDEGLUSIB] | > 30 µM (inactive) | > 30 µM (inactive) | > 30 µM (inactive) |
| COc1cc2nccc(Oc3ccc(NC(=O)Nc4cc(C)on4)c(Cl)c3)c2cc1OC [TIVOZANIB] | > 30 µM (inactive) | > 30 µM (inactive) | > 30 µM (inactive) |
| CC(=O)Nc1cccc(-n2c(=O)n(C3CC3)c(=O)c3c(Nc4ccc(I)cc4F)n(C)c(=O)c(C)c32)c1 [TRAMETINIB] | > 30 µM (inactive) | > 30 µM (inactive) | > 30 µM (inactive) |
